According to PubChem BioAssay (NCI):
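In this assay, cells in 96-well plates receive the compound at five concentrations for 48 hours. Endpoints are linearly interpolated between the surrounding concentrations. Abbreviation: GI50, concentration required for 50% inhibition of growth. TGI: total growth inhibition.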

Key:
Assay in all cases: NCI anticancer screen, dose series, 48 h
M14 melanoma = test system: M14 melanoma
A498 renal = test system: A498 renal
SK-MEL-28 melanoma = test system: SK-MEL-28 melanoma
OVCAR-8 ovarian = test system: OVCAR-8 ovarian
SNB-75 CNS = test system: SNB-75 CNS
HT29 colon = test system: HT29 colon
MCF7 breast = test system: MCF7 breast
RPMI-8226 leukemia = test system: RPMI-8226 leukemia
TK-10 renal = test system: TK-10 renal
HL-60(TB) leukemia = test system: HL-60(TB) leukemia

SMILES | GI50 (M14 melanoma) [µM] | TGI (M14 melanoma) [µM] | GI50 (A498 renal) [µM] | TGI (A498 renal) [µM] | GI50 (SK-MEL-28 melanoma) [µM] | TGI (SK-MEL-28 melanoma) [µM] | GI50 (OVCAR-8 ovarian) [µM] | TGI (OVCAR-8 ovarian) [µM] | GI50 (SNB-75 CNS) [µM] | TGI (SNB-75 CNS) [µM] | GI50 (HT29 colon) [µM] | TGI (HT29 colon) [µM] | GI50 (MCF7 breast) [µM] | TGI (MCF7 breast) [µM] | GI50 (RPMI-8226 leukemia) [µM] | TGI (RPMI-8226 leukemia) [µM] | GI50 (TK-10 renal) [µM] | TGI (TK-10 renal) [µM] | TGI (HL-60(TB) leukemia) [µM] | GI50 (HL-60(TB) leukemia) [µM]
O=C(Nc1ccccc1OC(=O)c1ccccc1)c1ccccc1 | 25.3 | > 100 | 12.7 | 60.1 | > 100 | > 100 | 6.35 | > 100 | 7.72 | > 100 | 3.76 | 41.4 | 12.9 | > 100 | 38.6 | > 100 | 31.5 | > 100 |  | 
NNc1nnc(-c2nnc(NN)o2)o1 |  | > 10 |  | > 10 |  | > 10 |  | > 10 |  |  |  | > 10 |  | > 10 |  | > 10 |  | > 10 | > 10 | 
COc1cc2c(cc1F)C(c1ccccc1Cl)=Nc1c(n[nH]c1C)N2 | 0.911 | 22 | 2.06 | 9.97 | 5.66 | 20.4 | 6.29 | 30.4 | 0.189 | 0.724 | 0.587 | 8.83 | 1.03 | 20.7 |  |  | 4.02 | 18.3 | 20.8 | 0.838
Fc1cccc(F)c1C(Nc1nncs1)Nc1nncs1 |  | > 100 |  | > 100 |  | > 100 |  | > 100 |  | > 100 |  | > 100 |  | > 100 |  | > 100 |  | > 100 |  | 
COc1ccc(NC(=O)C(=O)/C=C(\O)c2ccccc2)cc1 |  | > 10 |  |  |  | > 10 |  | > 10 |  | > 10 |  | > 10 |  | > 10 |  | > 10 |  | > 10 | > 10 | 
COc1cc(C(=O)Nc2cc(O)c(CC=C(C)C)c(O)c2)cc2c1O[C@]1(C)CC[C@@H](O)C(C)(C)[C@H]1C2 | 0.333 | 2.35 | 0.147 | 15.7 | 2.03 | 22.8 | 0.623 | 44.2 | 0.33 | 17 | 1.9 | 12.3 | 0.256 | 15.4 | 0.0959 | 0.816 | 2.91 | 42.4 |  | 
N#CC1(C#N)C(c2ccccc2)C=CC12OCCCO2 (centres undefined) |  | > 100 |  | > 100 |  | > 100 |  | 43 |  | > 100 |  | > 100 |  |  |  | 91.7 |  | > 100 | 92.3 | 
COc1cc2ncc3c(nc4sccn43)c2cc1OC | 16.4 | 78.2 | 8.01 | > 100 | 28.9 | 95 | 38.1 | > 100 |  |  | 69.7 | > 100 | 36.8 | > 100 | 26.4 | 89 | 11.1 | 29.5 |  | 
CCOC(=O)/C(I)=C/c1cc(OC)c(OC)c(OC)c1 |  | 14.7 |  | 91.3 |  | 7.88 |  | 38.8 |  | > 100 |  | 15.1 |  |  |  | 21.1 |  | 35.1 | 26.1 | 
CC(CO)(Nc1ccc([N+](=O)[O-])cc1[N+](=O)[O-])C(=O)O (centres undefined) |  | > 100 |  |  |  | 43.5 |  | > 100 |  |  |  | 30.4 |  | 32.1 |  | > 100 |  | > 100 | 35.4 | 
C1CSCCSCCCSCCSCCCSCCSCCCSCCSC1 |  | > 100 |  | > 100 |  | > 100 |  | > 100 |  |  |  | > 100 |  | > 100 |  | > 100 |  | > 100 | > 100 | 
O=C(Cc1nc2ccccc2o1)C(=O)Nc1cccc(C(F)(F)F)c1 |  | > 100 |  | > 100 |  | > 100 |  | > 100 |  | > 100 |  | > 100 |  |  |  | > 100 |  | > 100 | > 100 | 
COc1cccc(C2c3cc4c(cc3OC3COC(=O)C32)OCO4)c1OC (centres undefined) |  | > 100 |  | > 100 |  | > 100 |  | > 100 |  | > 100 |  | > 100 |  | > 100 |  |  |  | > 100 | > 100 | 
N[C@H](COCc1ccccc1)c1ccccc1 |  | 66 |  | 88.2 |  | > 100 |  | > 100 |  | 56 |  | > 93.9 |  |  |  | 45.2 |  | > 100 | 30.8 | 
